Molecules are shown by their SMILES.

In BindingDB's records for doi:10.1016/j.ejmech.2016.06.019 (Federal University of Minas Gerais, 2016) one finds IC50 data, which are given here for four molecules.

The test in a line: Activation of NQO1 in human A549 cells assessed as decrease in cell survival incubated for 2 hrs measured after 7 days in presence of NQO1 inhibitor dicoumarol by Hoechst 33258 staining based assay.

By IC50 is commonly meant the midpoint of a concentration-inhibition curve. As to `CC1(C)OC2=C(C(=O)C(=O)c3ccccc32)C1Nc1cccc(-c2cn(C[Se]c3ccccc3)nn2)c1` (centres undefined), the IC50 is more than 3.2 µM.

For the molecule `CC1(C)OC2=C(C(=O)C(=O)c3ccccc32)C1Nc1ccc([N+](=O)[O-])cc1` (centres undefined), the IC50 is more than 3.2 µM.

As for `CC1(C)OC2=C(C(=O)C(=O)c3ccccc32)C1Nc1cccc([N+](=O)[O-])c1` (centres undefined), the IC50 is more than 3.2 µM.

With `CC1(C)OC2=C(C(=O)C(=O)c3ccccc32)C1Nc1ccc(F)c([N+](=O)[O-])c1` (centres undefined), the IC50 was more than 3.2 µM.
